Results reported in ChEMBL document CHEMBL1938346, “Structure-activity studies of diazabicyclo[3.3.0]octane-substituted pyrazines and pyridines as potent α4β2 nicotinic acetylcholine receptor ligands” (J Med Chem, 2011).

Tests used:
[1] = target: Neuronal acetylcholine receptor; alpha4/beta2 (Rattus norvegicus, UniProt P09483+P12390); assay: Displacement of [3H]cytisine from nAChR alpha4beta2 in rat brain membrane; type: cell membranes
[2] = Half life in rat at 2 umol/kg, iv measured after 8 hrs; type: ADME, organism-based; conditions: in vivo
[3] = Bioavailability in rat at 2 umol/kg, ip; type: ADME, organism-based; conditions: in vivo
[4] = Half life in rat at 2 umol/kg, ip measured after 8 hrs; type: ADME, organism-based; conditions: in vivo
[5] = Ratio drug uptake in brain to plasma of rat at 2 umol/kg, ip measured after 0.75 hrs; type: ADME, organism-based; conditions: read-out: BPR
[6] = Drug uptake in rat brain at 2 umol/kg, ip measured after 0.75 hrs; type: ADME, organism-based; conditions: read-out: Drug uptake
[7] = Drug uptake in rat plasma at 2 umol/kg, ip measured after 0.75 hrs; type: ADME, organism-based
[8] = Agonist activity at nAChR alpha3beta4* expressed in human IMR32 cells assessed as calcium flux by FLIPR assay relative to nicotine; type: functional; conditions: IMR-32
[9] = Half life in rat at 2 umol/kg, po measured after 8 hrs; type: ADME, organism-based; conditions: in vivo
[10] = Agonist activity at nAChR alpha3beta4* expressed in human IMR32 cells assessed as calcium flux by FLIPR assay; type: functional, cell-based
[11] = Oral bioavailability in rat at 2 umol/kg; type: ADME, organism-based; conditions: in vivo

Neuronal acetylcholine receptor; alpha4/beta2, sequence (P09483 whole entry): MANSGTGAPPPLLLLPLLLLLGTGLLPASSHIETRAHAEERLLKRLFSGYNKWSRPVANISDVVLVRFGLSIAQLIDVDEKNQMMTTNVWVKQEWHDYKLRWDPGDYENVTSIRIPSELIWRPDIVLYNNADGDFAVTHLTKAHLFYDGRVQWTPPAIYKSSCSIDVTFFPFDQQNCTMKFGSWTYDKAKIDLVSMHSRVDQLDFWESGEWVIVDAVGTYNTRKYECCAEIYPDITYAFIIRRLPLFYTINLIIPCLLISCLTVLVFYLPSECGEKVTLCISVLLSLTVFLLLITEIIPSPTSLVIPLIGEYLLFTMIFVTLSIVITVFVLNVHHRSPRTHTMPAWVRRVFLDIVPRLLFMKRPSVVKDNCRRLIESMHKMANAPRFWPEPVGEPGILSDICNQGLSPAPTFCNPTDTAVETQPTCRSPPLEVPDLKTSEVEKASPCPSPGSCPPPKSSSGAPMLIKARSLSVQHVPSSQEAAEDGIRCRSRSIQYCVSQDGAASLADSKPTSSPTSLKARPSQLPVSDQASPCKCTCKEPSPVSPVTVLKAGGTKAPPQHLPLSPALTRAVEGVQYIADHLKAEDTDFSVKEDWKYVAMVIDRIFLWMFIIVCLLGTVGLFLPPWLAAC
Neuronal acetylcholine receptor; alpha4/beta2, sequence (P12390 whole entry): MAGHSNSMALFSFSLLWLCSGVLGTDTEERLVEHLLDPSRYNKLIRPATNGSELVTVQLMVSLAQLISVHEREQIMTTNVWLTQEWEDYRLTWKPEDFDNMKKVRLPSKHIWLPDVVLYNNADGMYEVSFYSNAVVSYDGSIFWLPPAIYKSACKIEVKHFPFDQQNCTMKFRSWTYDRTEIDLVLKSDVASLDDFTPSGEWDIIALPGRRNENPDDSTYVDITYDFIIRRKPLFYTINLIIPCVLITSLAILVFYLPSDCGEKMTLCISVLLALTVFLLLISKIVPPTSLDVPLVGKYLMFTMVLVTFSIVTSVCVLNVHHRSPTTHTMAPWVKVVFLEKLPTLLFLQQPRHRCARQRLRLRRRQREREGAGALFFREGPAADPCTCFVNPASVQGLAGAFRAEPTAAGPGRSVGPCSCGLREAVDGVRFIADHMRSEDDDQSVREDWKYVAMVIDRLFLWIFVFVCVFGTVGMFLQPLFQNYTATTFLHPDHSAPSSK

Row | Compound | Ki ([1]; read-out: Ki) | Emax [8] | EC50 ([10]; IMR-32, read-out: EC50) | other results
1 | c1cncc(N2C[C@H]3CNC[C@H]3C2)c1 | 0.13 nM | – | – | –
2 | c1cncc(N2C[C@H]3CCN[C@H]3C2)c1 | 0.34 nM | – | – | –
3 | c1cncc(N2C[C@@H]3CCN[C@@H]3C2)c1 | 2.9 nM | – | – | –
4 | c1cnc(N2C[C@H]3CNC[C@H]3C2)cn1 | 7.8 nM | – | – | –
5 | Cc1ccccc1CNC(=O)c1cncc(N2C[C@H]3CNC[C@H]3C2)n1 | 1.7 nM | 17% | > 100000 nM | half-life [2]: 1.7 h; bioavailability [3]: 77%; half-life [4]: 2.4 h; Kp at 0.75 h [5]: 0.04; concentration at 0.75 h [6]: 8 ng/mL; concentration at 0.75 h [7]: 178 ng/mL; half-life [9]: 2.1 h; bioavailability [11]: 35%
6 | Cc1ccccc1CNC(=O)c1cncc(N2C[C@@H]3CCN[C@@H]3C2)n1 | > 10000 nM | – | – | Ki ([1]; read-out: pKi (converted)): > 10000 nM
7 | Cc1ccccc1CNC(=O)c1cncc(N2CC[C@@H]3CNC[C@@H]32)n1 | 5600 nM | – | – | –
8 | Cc1cccc(NC(=O)c2cncc(N3C[C@H]4CNC[C@H]4C3)n2)c1 | 7.6 nM | 10% | > 100000 nM | –
9 | Cc1cccc(NC(=O)c2cncc(N3C[C@@H]4CCN[C@@H]4C3)n2)c1 | 2630 nM | – | – | –
10 | Cc1ccccc1CNC(=O)c1cncc(N2C[C@H]3CNC[C@H]3C2)c1 | 2.7 nM | 8% | > 100000 nM | Kp at 0.75 h [5]: 0.02; concentration at 0.75 h [6]: 3.3 ng/mL; concentration at 0.75 h [7]: 142 ng/mL
11 | Cc1ccccc1CNC(=O)c1cncc(N2CC[C@H]3CNC[C@H]32)c1 | 871 nM | – | – | –
12 | O=C(NCc1ccccc1)c1cncc(N2C[C@H]3CNC[C@H]3C2)n1 | 3.9 nM | 10% | > 100000 nM | Kp at 0.75 h [5]: 0.04; concentration at 0.75 h [6]: 3 ng/mL; concentration at 0.75 h [7]: 81.3 ng/mL
13 | O=C(NCCc1ccccc1)c1cncc(N2C[C@H]3CNC[C@H]3C2)n1 | 69 nM | 13% | > 100000 nM | –
14 | CN(Cc1ccccc1)C(=O)c1cncc(N2C[C@H]3CNC[C@H]3C2)n1 | 174 nM | – | – | –
15 | CC(NC(=O)c1cncc(N2C[C@H]3CNC[C@H]3C2)n1)c1ccccc1 (stereo not given in full) | 132 nM | – | – | –
16 | O=C(NCc1ccc(Cl)c(Cl)c1)c1cncc(N2C[C@H]3CNC[C@H]3C2)n1 | 2.5 nM | 12% | > 100000 nM | –
17 | O=C(Nc1cccc(Cl)c1)c1cncc(N2C[C@H]3CNC[C@H]3C2)n1 | 0.7 nM | 26% | > 100000 nM | –
18 | O=C(Nc1cccc(I)c1)c1cncc(N2C[C@H]3CNC[C@H]3C2)n1 | 3.3 nM | 7% | > 100000 nM | –
19 | CC(C)c1cccc(NC(=O)c2cncc(N3C[C@H]4CNC[C@H]4C3)n2)c1 | 35 nM | – | – | –

Row | Compound | Ki ([1]; read-out: Ki) | Emax [8] | EC50 ([10]; IMR-32, read-out: EC50) | other results
20 | CC(C)Oc1cccc(NC(=O)c2cncc(N3C[C@H]4CNC[C@H]4C3)n2)c1 | 26 nM | 7% | > 100000 nM | –
21 | Cc1cc(C)cc(NC(=O)c2cncc(N3C[C@H]4CNC[C@H]4C3)n2)c1 | 51 nM | – | – | –
22 | O=C(Nc1cc(F)cc(F)c1)c1cncc(N2C[C@H]3CNC[C@H]3C2)n1 | 14 nM | 8% | > 100000 nM | –
23 | C[C@H](NC(=O)c1cncc(N2C[C@H]3CNC[C@H]3C2)c1)c1ccccc1 | 39 nM | 5% | > 100000 nM | –
24 | C[C@@H](NC(=O)c1cncc(N2C[C@H]3CNC[C@H]3C2)c1)c1ccccc1 | 2.2 nM | 6% | > 100000 nM | Kp at 0.75 h [5]: 0.15; concentration at 0.75 h [6]: 20.6 ng/mL; concentration at 0.75 h [7]: 139 ng/mL
25 | CN(Cc1ccccc1)C(=O)c1cncc(N2C[C@H]3CNC[C@H]3C2)c1 | 3.9 nM | 14% | > 100000 nM | Kp at 0.75 h [5]: 0.07; concentration at 0.75 h [6]: 6 ng/mL; concentration at 0.75 h [7]: 89.8 ng/mL
26 | O=C(NCc1ccccc1C(F)(F)F)c1cncc(N2C[C@H]3CNC[C@H]3C2)c1 | 0.9 nM | 4% | > 100000 nM | Kp at 0.75 h [5]: 0.04; concentration at 0.75 h [6]: 6.9 ng/mL; concentration at 0.75 h [7]: 164 ng/mL
27 | O=C(c1cncc(N2C[C@H]3CNC[C@H]3C2)c1)N1CCc2ccccc2C1 | 0.3 nM | 7% | > 100000 nM | –
28 | O=C(NC1CCc2ccccc21)c1cncc(N2C[C@H]3CNC[C@H]3C2)c1 (stereo not given in full) | 17 nM | 10% | > 100000 nM | –
29 | O=C(NCCc1ccccc1F)c1cncc(N2C[C@H]3CNC[C@H]3C2)c1 | 0.8 nM | 6% | 15800 nM | EC50 ([10]; IMR-32, read-out: pEC50 (converted)): 15800 nM
30 | O=C(Nc1cccc(I)c1)c1cncc(N2C[C@H]3CNC[C@H]3C2)c1 | 0.02 nM | 6% | > 100000 nM | Ki ([1]; read-out: pKi (converted)): 0.0245 nM
31 | CC(C)Oc1cccc(NC(=O)c2cncc(N3C[C@H]4CNC[C@H]4C3)c2)c1 | 1.1 nM | 10% | > 100000 nM | –
32 | O=C(Nc1ccc(Cl)cc1)c1cncc(N2C[C@H]3CNC[C@H]3C2)c1 | 0.2 nM | 8% | > 100000 nM | –
33 | Cc1cccc(NC(=O)c2cncc(N3C[C@H]4CNC[C@H]4C3)c2)c1 | 0.1 nM | 6% | > 100000 nM | Kp at 0.75 h [5]: 0.12; concentration at 0.75 h [6]: 6.4 ng/mL; concentration at 0.75 h [7]: 52.1 ng/mL
34 | Cc1cc(C)cc(NC(=O)c2cncc(N3C[C@H]4CNC[C@H]4C3)c2)c1 | 0.3 nM | 6% | > 100000 nM | Ki ([1]; read-out: pKi (converted)): 0.339 nM
35 | COc1cc(NC(=O)c2cncc(N3C[C@H]4CNC[C@H]4C3)c2)cc(OC)c1 | 0.3 nM | 10% | > 100000 nM | Kp at 0.75 h [5]: 0.07; concentration at 0.75 h [6]: 5.5 ng/mL; concentration at 0.75 h [7]: 74.5 ng/mL
36 | O=C(Nc1cc(F)cc(F)c1)c1cncc(N2C[C@H]3CNC[C@H]3C2)c1 | 0.04 nM | 18% | > 100000 nM | –
37 | c1ccc(COc2cncc(N3C[C@H]4CNC[C@H]4C3)n2)cc1 | – | – | – | Kp at 0.75 h [5]: 3.27; concentration at 0.75 h [6]: 76.8 ng/mL; concentration at 0.75 h [7]: 23.5 ng/mL
